Data from BindingDB's records for patent US20250346597 (Beone Medicines I, 2025).

Key:
[1] = molecular target: Diacylglycerol kinase zeta (Homo sapiens, UniProt Q13574); assay: Biochemical DGK IC50 Assays
Procedure: (§1) Enzymatic reactions of DGKζ, DGKα and DGKδ were performed using ADP-Glo assay with lipid micelle substrate. […] Full length DGKα (D21-10BG, SignalChem) and full length DGKδ (D23-10G, SignalChem) were purchased. […] The resulted product was resuspended in buffer containing 25 mM HEPES pH 7.0, 0.5 mM EDTA and 160 mM Octyl P-D glucopyranoside by vigorous mixing and ultrasonic (IID, Scientz). Final concentration in reaction. […] The inhibition activities testing for the compound disclosed herein were carried out at room temperature in assay buffer containing 50 mM HEPES, 10 mM MgCl2, 0.01% BSA, 0.1 mM Na3VO4, 0.005% Tween-20 and 0.01 mM CaCl2. […] 3 μL 2× enzyme solution was added to wells. […] After 1 hour reaction, 5 μL ADP-Glo reagent (Promga V9101) was added and incubated for 40 minutes. 10 μL Kinase Detection reagent was added and incubated for 30 minutes. Luminescence was measured on a microplate reader (PHERAstar FSX, BMG labtech). The IC50s are calculated based on inhibition of enzyme activity in the presence of increasing concentrations of compounds.

[2] = molecular target: Diacylglycerol kinase alpha (Homo sapiens, UniProt P23743); assay: Biochemical DGK IC50 Assays
Sequence of Diacylglycerol kinase alpha (P23743 whole entry): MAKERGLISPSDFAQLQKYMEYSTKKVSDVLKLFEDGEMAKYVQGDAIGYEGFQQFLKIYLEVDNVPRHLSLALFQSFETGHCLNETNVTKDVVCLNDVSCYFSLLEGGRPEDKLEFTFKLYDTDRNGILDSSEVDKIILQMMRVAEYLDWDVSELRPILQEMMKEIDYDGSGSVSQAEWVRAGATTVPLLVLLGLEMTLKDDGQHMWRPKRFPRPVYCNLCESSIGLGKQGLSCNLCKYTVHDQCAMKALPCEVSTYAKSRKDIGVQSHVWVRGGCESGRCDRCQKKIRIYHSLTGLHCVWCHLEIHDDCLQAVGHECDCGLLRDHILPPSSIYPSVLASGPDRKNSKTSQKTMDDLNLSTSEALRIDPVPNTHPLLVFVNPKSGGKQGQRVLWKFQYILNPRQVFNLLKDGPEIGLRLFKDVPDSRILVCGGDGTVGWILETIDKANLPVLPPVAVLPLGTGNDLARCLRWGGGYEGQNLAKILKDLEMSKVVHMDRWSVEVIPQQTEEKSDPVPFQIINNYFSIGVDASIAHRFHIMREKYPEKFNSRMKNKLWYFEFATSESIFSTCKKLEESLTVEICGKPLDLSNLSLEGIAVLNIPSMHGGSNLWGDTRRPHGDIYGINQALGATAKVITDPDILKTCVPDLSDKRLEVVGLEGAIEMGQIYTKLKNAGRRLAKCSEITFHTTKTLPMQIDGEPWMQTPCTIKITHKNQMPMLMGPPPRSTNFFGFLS
Procedure: as §1

Sequence of Diacylglycerol kinase zeta (Q13574 as listed by the source): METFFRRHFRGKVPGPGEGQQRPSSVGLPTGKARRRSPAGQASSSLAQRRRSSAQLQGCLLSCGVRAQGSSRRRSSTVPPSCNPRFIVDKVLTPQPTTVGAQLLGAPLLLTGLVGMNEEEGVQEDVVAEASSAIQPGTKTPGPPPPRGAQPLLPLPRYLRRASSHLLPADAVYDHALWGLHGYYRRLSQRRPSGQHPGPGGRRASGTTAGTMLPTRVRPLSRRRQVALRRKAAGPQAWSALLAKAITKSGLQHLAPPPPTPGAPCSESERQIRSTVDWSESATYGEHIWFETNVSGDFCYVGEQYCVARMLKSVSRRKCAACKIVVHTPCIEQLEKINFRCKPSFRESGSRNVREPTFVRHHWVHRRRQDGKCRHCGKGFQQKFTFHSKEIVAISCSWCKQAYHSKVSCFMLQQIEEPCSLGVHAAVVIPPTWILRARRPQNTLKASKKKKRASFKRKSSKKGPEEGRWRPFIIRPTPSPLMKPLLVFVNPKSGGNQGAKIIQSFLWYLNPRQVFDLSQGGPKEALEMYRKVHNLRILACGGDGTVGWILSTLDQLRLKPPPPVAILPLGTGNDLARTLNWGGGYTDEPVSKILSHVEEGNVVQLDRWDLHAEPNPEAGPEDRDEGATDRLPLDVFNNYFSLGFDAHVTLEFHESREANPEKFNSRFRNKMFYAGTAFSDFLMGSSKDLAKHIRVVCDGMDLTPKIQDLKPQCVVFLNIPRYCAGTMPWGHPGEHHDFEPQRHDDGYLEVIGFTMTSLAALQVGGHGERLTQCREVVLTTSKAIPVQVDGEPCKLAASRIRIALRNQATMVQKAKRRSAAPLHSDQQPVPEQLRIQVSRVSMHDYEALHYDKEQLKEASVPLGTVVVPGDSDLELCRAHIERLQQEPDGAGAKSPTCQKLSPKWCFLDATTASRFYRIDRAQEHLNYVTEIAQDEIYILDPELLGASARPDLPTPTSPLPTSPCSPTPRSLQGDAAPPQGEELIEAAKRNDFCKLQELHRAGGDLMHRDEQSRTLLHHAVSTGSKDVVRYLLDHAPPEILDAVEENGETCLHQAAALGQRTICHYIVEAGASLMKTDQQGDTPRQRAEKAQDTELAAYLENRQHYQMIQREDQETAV

| IC50 [1] | IC50 [2] | Structure (SMILES) |
| --- | --- | --- |
| > 10000 nM |  | CC[C@H]1CN(C(C)c2ccc(N)nc2)[C@H](CC)CN1c1cc(=O)n(C)c2cn(CC#N)nc12 (single isomer, unassigned) [US20250346597, Compound A187b] |
| 500 nM | 79 nM | CC[C@@H]1CN(C2CC(=O)N(C)C3=CN(CC#N)NC32)[C@@H](CC)CN1C(C)c1ccc(OCCOC)cc1 (stereo partly drawn) [US20250346597, Compound A11] |
